Measurements as given in the NIST ThermoML archive (doi:10.1016/j.fluid.2015.05.026).
Several values for one entry are separate records, joined by “and”; a condition that tells them apart may be missing. Equal values may be shown once.

Assays:
[1] = molar heat capacity at constant pressure; settings: 101.33 kPa, Liquid, Large sample (1 g) DSC
[2] = Liquid, Closed cell (Static) method

CCC/C=C/CO [(E)-2-hexen-1-ol]
Settings | molar heat capacity at constant pressure [J/K/mol] | vapor or sublimation pressure
[1], 265 K | 211.9 | –
[1], 270 K | 215.1 | –
[1], 275 K | 218.4 | –
[1], 280 K | 221.9 | –
[1], 285 K | 225.4 | –
[1], 290 K | 229.2 | –
[1], 295 K | 233.3 | –
[1], 300 K | 237.2 | –
[1], 305 K | 241.3 | –
[1], 310 K | 245.3 | –
[1], 315 K | 249.5 | –
[1], 320 K | 253.6 | –
[1], 325 K | 257.8 | –
[1], 330 K | 261.9 | –
[1], 335 K | 265.6 | –
[1], 340 K | 269.5 | –
[1], 345 K | 273.3 | –
[1], 350 K | 276.9 | –
[1], 355 K | 280.1 | –
[2], 238.15 K | – | 0.000207 kPa and 0.00021 kPa and 0.000211 kPa
[2], 243.15 K | – | 0.000404 kPa and 0.000406 kPa and 0.000407 kPa
[2], 248.15 K | – | 0.000768 kPa and 0.000772 kPa
[2], 253.15 K | – | 0.001399 kPa and 0.001397 kPa
[2], 258.15 K | – | 0.002485 kPa and 0.002492 kPa and 0.002493 kPa
[2], 263.15 K | – | 0.004314 kPa and 0.004317 kPa and 0.004318 kPa
[2], 268.15 K | – | 0.007304 kPa and 0.00731 kPa and 0.007315 kPa
[2], 273.15 K | – | 0.01214 kPa
[2], 273.65 K | – | 0.01275 kPa and 0.01276 kPa
[2], 278.15 K | – | 0.01974 kPa and 0.01975 kPa
[2], 283.15 K | – | 0.03147 kPa and 0.03148 kPa
[2], 288.15 K | – | 0.04923 kPa and 0.04926 kPa and 0.04927 kPa
[2], 293.15 K | – | 0.07568 kPa and 0.07569 kPa
[2], 298.15 K | – | 0.1143 kPa
[2], 303.15 K | – | 0.1699 kPa
[2], 308.15 K | – | 0.2483 kPa and 0.2484 kPa

CCCCCCO [hexan-1-ol]
[2]
Settings | vapor or sublimation pressure
237.95 K | 0.000143 kPa
238 K | 0.000143 kPa and 0.000145 kPa
243.2 K | 0.000296 kPa
243.25 K | 0.000293 kPa
248.2 K | 0.000569 kPa and 0.00056 kPa and 0.000564 kPa
253.15 K | 0.001054 kPa and 0.001051 kPa and 0.001057 kPa
258.15 K | 0.001918 kPa and 0.001915 kPa and 0.00192 kPa
263.15 K | 0.003393 kPa and 0.003385 kPa
268.15 K | 0.005838 kPa and 0.005843 kPa and 0.005839 kPa
273.15 K | 0.009866 kPa and 0.009857 kPa
273.65 K | 0.01039 kPa
278.15 K | 0.01629 kPa and 0.0163 kPa
283.15 K | 0.02639 kPa and 0.02642 kPa
288.15 K | 0.04189 kPa and 0.0419 kPa
293.15 K | 0.06536 kPa and 0.06537 kPa
298.15 K | 0.1001 kPa
303.15 K | 0.1505 kPa
308.15 K | 0.223 kPa and 0.223 kPa and 0.2231 kPa

CC/C=C\CCO [(Z)-3-hexen-1-ol]
Settings | molar heat capacity at constant pressure [J/K/mol] | vapor or sublimation pressure
[1], 265 K | 206.7 | –
[1], 270 K | 210.2 | –
[1], 275 K | 213.9 | –
[1], 280 K | 217.6 | –
[1], 285 K | 221.4 | –
[1], 290 K | 225.4 | –
[1], 295 K | 229.7 | –
[1], 300 K | 234 | –
[1], 305 K | 238.2 | –
[1], 310 K | 242.4 | –
[1], 315 K | 246.7 | –
[1], 320 K | 250.9 | –
[1], 325 K | 255.2 | –
[1], 330 K | 259.2 | –
[1], 335 K | 263.1 | –
[1], 340 K | 266.8 | –
[1], 345 K | 270.8 | –
[1], 350 K | 274.6 | –
[1], 355 K | 277.8 | –
[2], 238.15 K | – | 0.000301 kPa and 0.000303 kPa and 0.000304 kPa
[2], 243.15 K | – | 0.000577 kPa and 0.000579 kPa and 0.00058 kPa
[2], 248.15 K | – | 0.001062 kPa and 0.001066 kPa and 0.001069 kPa
[2], 253.15 K | – | 0.001923 kPa and 0.001926 kPa and 0.001921 kPa
[2], 258.15 K | – | 0.003383 kPa and 0.003393 kPa and 0.003395 kPa
[2], 263.15 K | – | 0.005802 kPa and 0.005803 kPa and 0.005805 kPa
[2], 268.15 K | – | 0.009727 kPa and 0.009728 kPa and 0.009737 kPa
[2], 273.65 K | – | 0.01674 kPa
[2], 278.15 K | – | 0.02561 kPa and 0.02562 kPa and 0.02563 kPa
[2], 283.15 K | – | 0.04036 kPa and 0.04037 kPa
[2], 288.15 K | – | 0.06241 kPa and 0.06244 kPa
[2], 293.15 K | – | 0.09491 kPa and 0.09494 kPa and 0.09496 kPa
[2], 298.15 K | – | 0.142 kPa
[2], 303.15 K | – | 0.2089 kPa and 0.209 kPa
[2], 308.15 K | – | 0.3032 kPa and 0.3034 kPa

C=CC(O)CCC (configuration not stated) [1-hexen-3-ol]
Settings | molar heat capacity at constant pressure [J/K/mol] | vapor or sublimation pressure
[1], 265 K | 235.9 | –
[1], 270 K | 241 | –
[1], 275 K | 246 | –
[1], 280 K | 250.8 | –
[1], 285 K | 255.5 | –
[1], 290 K | 260.1 | –
[1], 295 K | 264.8 | –
[1], 300 K | 269.3 | –
[1], 305 K | 273.6 | –
[1], 310 K | 277.6 | –
[1], 315 K | 281.6 | –
[1], 320 K | 285.4 | –
[1], 325 K | 289.1 | –
[1], 330 K | 292.5 | –
[1], 335 K | 295.4 | –
[1], 340 K | 298.2 | –
[1], 345 K | 301.2 | –
[1], 350 K | 303.8 | –
[1], 354.7 K | 305.5 | –
[2], 238.2 K | – | 0.001239 kPa and 0.001245 kPa and 0.001252 kPa
[2], 243.15 K | – | 0.002307 kPa and 0.002309 kPa and 0.00231 kPa
[2], 248.15 K | – | 0.004181 kPa
[2], 248.2 K | – | 0.004188 kPa and 0.004193 kPa
[2], 253.15 K | – | 0.007373 kPa and 0.007376 kPa
[2], 258.15 K | – | 0.01269 kPa and 0.0127 kPa and 0.01271 kPa
[2], 263.15 K | – | 0.0214 kPa and 0.02141 kPa
[2], 268.15 K | – | 0.03517 kPa and 0.03518 kPa
[2], 273.15 K | – | 0.05668 kPa and 0.05669 kPa and 0.05671 kPa
[2], 278.15 K | – | 0.08933 kPa and 0.08939 kPa
[2], 283.15 K | – | 0.1383 kPa and 0.1384 kPa
[2], 288.15 K | – | 0.2097 kPa and 0.2098 kPa
[2], 293.15 K | – | 0.3122 kPa and 0.3123 kPa
[2], 298.15 K | – | 0.4574 kPa and 0.4576 kPa
[2], 303.15 K | – | 0.6587 kPa and 0.6589 kPa
[2], 308.15 K | – | 0.9353 kPa and 0.9355 kPa
